According to patent publication US20200205399A1, “COMPOSITION FOR CRYOPRESERVATION, METHOD FOR PRODUCING CRYOPRESERVED MATERIAL, CELL PREPARATION, METHOD FOR PRODUCING CELL PREPARATION, AND KIT FOR CRYOPRESERVATION” (TWO CELLS Co., Ltd., priority 2017, published 2020):
Entries after “also recorded” stand apart in the source; their conditions may differ.

Test system: gMSC (registered trademark) 1
Test: Experimental cryopreservation of gMSC 1 (scaffold-free, three-dimensional mass of mesenchymal stem cells); cell count after thawing
Type: cell-based, human
Conditions: conclusion from gMSC 1 experiments, constituent added to 10% DMSO + basal medium + albumin
Procedure: Primary cultured human synovium-derived MSCs were obtained through the following steps (1) to (4) or were obtained by shredding a tissue into fragments, immersing them in a culture solution (STK1) in a culture vessel, and allowing outgrowth of cells from the tissue fragments.
(1) Synovial tissue was taken from a human.
(2) The obtained synovial tissue was washed with PBS, then the tissue was added to 10 ml of a 0.4% collagenase solution and blended, and allowed to react at 37° C. for 1 to 4 hours.
(3) The resultant product was subjected to filtering and then centrifugation to recover the synovial tissue.
(4) Primary culture was carried out in a STK (registered trademark) 1 in accordance with the instructions from the manufacturer of the STK 1.
The primary cultured cells obtained in the above manner were subcultured and proliferated in a STK (registered trademark) 2 by repeated subculture, in accordance with the instructions from the manufacturer of the STK 2.
MSCs in a sub-confluent state (5th generation: P5) were washed once with phosphate buffered saline (PBS, calcium-free and magnesium-free, PBS(−), Cell Science & Technology Institute, Inc.), then detached with use of a cell detachment agent TrypLE Select CTS (Thermo Fisher Scientific Inc.), were collected, and suspended in a washing medium (DMEM, Sigma). Then, the cells were transferred to a tube for centrifugation, and subjected to centrifugation at 1500 rpm at room temperature for 5 minutes. The separated single cells were further suspended in a washing medium, and the number of cells was counted using trypan blue staining. The cells were inoculated onto a 6-well plate (SUMITOMO BAKELITE CO., LTD.) containing a STK (registered trademark) 2 at a density of 40×10^4 cells/cm^2, and cultured (high-density culture) in an incubator at 37° C. and 5% CO2 for 7 days. Culture media were replaced three days after the inoculation and five days after the inoculation. […]

CCCCC/C=C\C/C=C\CCCCCCCC(=O)O [linoleic acid, Linoleic Acid]
cryopreservative effect on scaffold-free, three-dimensional mass of mesenchymal stem cells: effective; also recorded: greater than the cryopreservative effect achieved by methyl-β-cyclodextrin

Phosphatidic acid sodium salt [PA]
cryopreservative effect on scaffold-free, three-dimensional mass of mesenchymal stem cells: effective

Tween 80 [reference compound]
cryopreservative effect on scaffold-free, three-dimensional mass of mesenchymal stem cells: not effective
